Laboratory results reported in patent US12384787B2, “Fused heterocyclic compounds and their use as pest control agents” (PI INDUSTRIES LTD., priority 2019, dated 2025).

Tests used:
Assay type in all cases: in vivo
Plutella xylostella = Plutella xylostella leaf dip method (cabbage leaves); conditions: foliar, second instar larvae, 72 h after release, dead and moribund combined, compared to untreated control, read-out: Percent mortality
Myzus persicae = Myzus persicae leaf dip method (capsicum leaves); conditions: foliar, third instar nymphs, 72 h after release, dead and moribund combined, compared to untreated control, read-out: Percent mortality
Experimental: The leaf dip method was used for testing, wherein the required quantity of the test compounds were weighed and dissolved in a surfactant solution, kept on a Vortex at 2000 rpm with zirconia beads for 90 min for proper mixing and then diluted with 0.01% Triton-X solution to the desired test concentration. Capsicum leaves were dipped in the solution for 10 seconds, shade dried for 20 min and then the leaves were kept in glass units with the petiole dipped in water. Known numbers of third instar nymphs were released into the glass units and then kept in the plant growth chambers at a temperature of 25° C. and relative humidity of 70%. Observations on dead, moribund and living nymphs were recorded at 72 h after the release. Percent mortality was calculated by combining dead and moribund nymphs and comparing the result to the one of the untreated control. The compounds 9 14 16 22 23 50 71 104 and 131 were showing efficacy higher than 70 percent mortality @ 300 PPM.

Bemisia tabaci = Bemisia tabaci leaf dip method (cotton leaves); conditions: foliar, freshly emerged adults, 72 h after release, dead and moribund combined, compared to untreated control, read-out: Percent mortality
Experimental: The leaf dip method was used for testing, wherein the required quantity of the test compounds were weighed and dissolved in surfactant solution, kepton a Vortex at 2000 rpm with zirconia beads for 90 min for proper mixing and then diluted with 0.01% Triton-X solution to the desired test concentration. Cotton leaves were dipped in the solution for 10 seconds, shade dried for 20 min and then the leaves were kept in glass units with the petiole dipped in water. Known numbers of freshly emerged adults were released and kept in the plant growth chamber at a temperature of 25° C. and relative humidity of 70%. Observations on dead, moribund and living adults were recorded at 72 h after the release. Percent mortality was calculated by combining dead and moribund adults and comparing the result to the one of the untreated control.

Spodoptera litura = Spodoptera litura diet incorporation method; conditions: third instar larvae, 96 h after release, dead and moribund combined, compared to untreated control, read-out: Percent mortality
Experimental: Diet incorporation method was used, in which the required quantity of test compounds were weighed and dissolved in surfactant solution, kept on vortex for 90 min for proper mixing, then diluted with water to the desired test concentrations. The solutions were incorporated into semi-synthetic diet when the temperature reached approximately 50° C. in the bioassay containers. The diet and solution was stirred thoroughly for properly mixing and was left to cool for 30 min. The solidified diet was cut into equal pieces, and then each piece was transferred into one cell of the bio-assay trays. A single starved third instar larva was released into each of these cells of the bioassay trays and the tray was covered with a lid. The bio-assay trays were kept under laboratory conditions at a temperature of 25° C. and relative humidity of 70%. Observations on dead, moribund and alive larvae were recorded at 96 h after the release of the larvae. Percent mortality was calculated by combining dead and moribund larvae and comparing the result to the one of the untreated control.

Nilaparvata lugens = Nilaparvata lugens seedling dip method (paddy seedlings); conditions: third instar nymphs, 72 h after release, dead and moribund combined, compared to untreated control, read-out: Percent mortality
Experimental: Seedling dip method was used for screening, wherein the required quantity of the test compounds were weighed and dissolved in surfactant solution, kept on a Vortex at 2000 rpm with zirconia beads for 90 min for proper mixing, then diluted with 0.01% Triton-X solution to the desired test concentration. Paddy seedlings were dipped in the solution for 10 seconds, shade dried for 20 min and then transferred into glass tubes with the roots kept in water. Known numbers of third instar nymphs were released into the test tubes and the tubes were kept in the plant growth chamber at a temperature of 25° C. and relative humidity of 75%. Observations on dead, moribund and living nymphs were recorded at 72 h after the release. Percent mortality was calculated by combining dead and moribund nymphs and comparing the result to the one of the untreated control.

Helicoverpa armigera = Helicoverpa armigera diet incorporation method; conditions: third instar larvae, 96 h after release, dead and moribund combined, compared to untreated control, read-out: Percent mortality
Experimental: Diet incorporation method was used, in which the required quantity of test compounds were weighed and dissolved in a surfactant solution, kept on vortex for 90 min for proper mixing, then was diluted with water to the desired test concentrations. The solutions were incorporated into semi-synthetic diet when the temperature reached approximately 50° C. in the bioassay containers. The diet and solution was stirred thoroughly for properly mixing and then left to cool for 30 min. The solidified diet was cut into equal pieces, and then each piece was transferred into one cell of the bio-assay trays. A single third starved instar larva was released into each of these cells of the bioassay trays and each tray was covered with a lid. The bio-assay trays were kept under laboratory conditions at a temperature of 25° C. and relative humidity of 70%. Observations on dead, moribund and alive larvae were recorded at 96 h after the release of the larvae. Percent mortality was calculated by combining dead and moribund larvae and comparing the result to the one of the untreated control.

Row | SMILES | mortality at 300 ppm (Plutella xylostella) | mortality at 300 ppm (Myzus persicae) | other results
1 | CCSc1nn2c(C)cc(C)nc2c1-c1nc2cc(C(F)(F)F)cnc2n1C [Compound 9, 2-(2-(Ethylthio)-5,7-dimethylpyrazolo[1,5-a]pyrimidin-3-yl)-3-methyl-6-(trifluoromethyl)-3H-imidazo[4,5-b]pyridine] | > 70% | > 70% | 
2 | CCSc1nn2cccnc2c1-c1nc2cc(C(F)(F)F)cnc2n1C [Compound 14, 2-(2-(Ethylthio)pyrazolo[1,5-a]pyrimidin-3-yl)-3-methyl-6-(trifluoromethyl)-3H-imidazo[4,5-b]pyridine] |  | > 70% | 
3 | CCS(=O)(=O)c1nn2cccnc2c1-c1nc2cc(C(F)(F)F)cnc2n1C [Compound 16, 2-(2-(Ethylsulfonyl)pyrazolo[1,5-a]pyrimidin-3-yl)-3-methyl-6-(trifluoromethyl)-3H-imidazo[4,5-b]pyridine] |  | > 70% | 
4 | CCSc1nn2cccnc2c1-c1nc2cc(C(F)(F)F)ncc2n1C [Compound 22, 2-(2-(Ethylthio)pyrazolo[1,5-a]pyrimidin-3-yl)-3-methyl-6-(trifluoromethyl)-3H-imidazo[4,5-c]pyridine] | > 70% | > 70% | mortality at 300 ppm (Bemisia tabaci): > 70%
5 | CCS(=O)(=O)c1nn2cccnc2c1-c1nc2cc(C(F)(F)F)ncc2n1C [Compound 23, 2-(2-(Ethylsulfonyl)pyrazolo[1,5-a]pyrimidin-3-yl)-3-methyl-6-(trifluoromethyl)-3H-imidazo[4,5-c]pyridine] |  | > 70% | 
6 | CCS(=O)(=O)c1nn2cc(Cl)cnc2c1-c1nc2cc(C(F)(F)F)cnc2n1C [Compound 50, 2-(6-Chloro-2-(ethylsulfonyl)pyrazolo[1,5-a]pyrimidin-3-yl)-3-methyl-6-(trifluoromethyl)-3H-imidazo[4,5-b]pyridine] | > 70% | > 70% | 
7 | CCS(=O)(=O)c1nn2cc(-c3ccc(Cl)cc3)cnc2c1-c1nc2cc(C(F)(F)F)cnc2n1C [Compound 63, 2-(6-(4-Chlorophenyl)-2-(ethylsulfonyl)pyrazolo[1,5-a]pyrimidin-3-yl)-3-methyl-6-(trifluoromethyl)-3H-imidazo[4,5-b]pyridine] | > 70% |  | mortality at 300 ppm (Spodoptera litura): > 70%; mortality at 300 ppm (Nilaparvata lugens): > 70%
8 | CCS(=O)(=O)c1nn2cc(Br)cnc2c1-c1nc2cc(C(F)(F)F)cnc2n1C [Compound 71, 2-(6-Bromo-2-(ethylsulfonyl)pyrazolo[1,5-a]pyrimidin-3-yl)-3-methyl-6-(trifluoromethyl)-3H-imidazo[4,5-b]pyridine] | > 70% | > 70% | 
9 | CCS(=O)(=O)c1nn2c(-c3ccc(Cl)c(Cl)c3)ccnc2c1-c1nc2cc(C(F)(F)F)cnc2n1C [Compound 104, 2-(7-(3,4-Dichlorophenyl)-2-(ethylsulfonyl)pyrazolo[1,5-a]pyrimidin-3-yl)-3-methyl-6-(trifluoromethyl)-3H-imidazo[4,5-b]pyridine] | > 70% | > 70% | mortality at 300 ppm (Helicoverpa armigera): > 70%
10 | CCS(=O)(=O)c1nn2c(-c3ccc(Cl)c(F)c3)ccnc2c1-c1nc2cc(C(F)(F)F)cnc2n1C [Compound 118, 2-(7-(4-Chloro-3-fluorophenyl)-2-(ethylsulfonyl)pyrazolo[1,5-a]pyrimidin-3-yl)-3-methyl-6-(trifluoromethyl)-3H-imidazo[4,5-b]pyridine] | > 70% |  | mortality at 300 ppm (Helicoverpa armigera): > 70%; mortality at 300 ppm (Spodoptera litura): > 70%
11 | CCSc1nn2c(-c3ccc(Cl)c(F)c3)ccnc2c1-c1nc2cc(C(F)(F)F)ncc2n1C [Compound 119, 2-(7-(4-Chloro-3-fluorophenyl)-2-(ethylthio)pyrazolo[1,5-a]pyrimidin-3-yl)-3-methyl-6-(trifluoromethyl)-3H-imidazo[4,5-c]pyridine] | > 70% |  | mortality at 300 ppm (Bemisia tabaci): > 70%
12 | CCSc1nn2c(C)ccnc2c1-c1nc2cc(C(F)(F)F)cnc2n1C [Compound 131, 2-(2-(Ethylthio)-7-methylpyrazolo[1,5-a]pyrimidin-3-yl)-3-methyl-6-(trifluoromethyl)-3H-imidazo[4,5-b]pyridine] | > 70% | > 70% | 
